Patent US20160243011A1, “Formulations Comprising Idebenone, N-Acetyl-S-Farnesyl-L-Cysteine and Ergothioneine and Uses Thereof” (ELIZABETH ARDEN, INC., priority 2012, published 2016)

Columns and labels:
IL-6 [1] = test: UVB induced IL-6 release in NHEKs (ELISA); format: cell-based, Human; conditions: for IL-6 (% inh) / EPF Score: 1 μM; for IL-6 (% inh) / inhibition at 1 µM: 6 hours pre-treatment, NHEK, UVB 25 mJ/cm2, 24 hours; for EPF Score: Example 8 (8A), IL-6; for inhibition at 1 µM: Homo sapiens, light or radiation study, read-out: IL-6 (% inh)
Experimental: (§1) In order to evaluate the impact of UV-induced inflammation in human skin, primary cell monolayer cultures were exposed to different types of UV radiation, i.e. UVB and UVA. Primary Human Dermal Fibroblasts (HDFs) were irradiated with UVA (350 nm) and Normal Human Epidermal Keratinocytes cells (NHEKs) with UVB (305 nm). HDFs were cultured in Dulbecco's Modified Eagle Medium (DMEM) basal medium (Life Technologies, Grand Island, N.Y.), supplemented with 10% v/v fetal bovine serum (FBS), (referred to as supplemented media) at 37° C. with 5% CO2 NHEKs were cultured in Epilife® basal medium (Life Technologies, Grand Island, N.Y.), supplemented with 60 μM calcium, 0.2% v/v bovine pituitary extract (BPE), 5 μg/ml bovine insulin, 0.18 μg/ml hydrocortisone, 5 μg/ml bovine transferrin, 5 μg/ml, 0.2 ng/ml human epidermal growth factor (referred to as supplemented media) at 37° C. with 5% CO2.
(§2) In order to avoid possible immunomodulating effects of these agents during compound treatments, cells were kept in DMEM or Epilife® basal medium without growth supplements (referred to as depleted media). Cells were plated at a concentration of 3.8×10^4 cells/well in supplemented media in 24-well plates. After cells were allowed to adhere (24 hours), media was changed to depleted media.
(§3) For “blend” testing, a formulation of idebenone, Arazine™ and ergothioneine (1:1:1 molar ratio) was prepared before mixing to medium. Six hours after pre-treatments, to induce a pro-inflammatory response, pre-treatment media was removed and replaced with phosphate-buffered saline (PBS).
(§4) Immediately after UV irradiation, cells were placed in fresh depleted medium for 24 hours. Cell cultures were examined for viability by the reduction of 3-(4,5-dimethylthiazol-2-yl)-5-(3-carboxymethoxyphenyl)-2-(4-sulfophenyl)-2H-tetrazolium (MTS assay; Promega, Madison, Wis.) to determine the percentage of viable cells after compound and UV irradiation. Media supernatants were harvested from non-irradiated and UV irradiated cells and assayed by enzyme-linked immunosorbent assays (ELISA) for the stimulated release of pro-inflammatory mediators. NHEKs were assayed for concentrations of Interleukin-6 (IL-6) and Tumor Necrosis Factor-alpha (TNF-alpha) using appropriate protein standards (BD Biosciences; San Jose, Calif.). HDFs were assayed for concentrations of IL-6 (BD Biosciences) or pro-Matrix Metalloproteinase-1 (pro-MMP-1) using appropriate protein standards (R&D Systems; Minneapolis, Minn.).
(§5) Control groups contained non-irradiated cells. Twenty four hours later, cell medium were assayed for the presence of pro-inflammatory mediators by ELISA.
(§6) To test these anti-oxidants for anti-inflammatory properties, primary Human Epidermal Keratinocytes (NHEKs) were cultured in the presence of each ingredient for 6 hours. Ingredients were then removed and cells were irradiated with 25 mJ/cm2 UVB. Media supernatants were collected after 24 hours and analyzed by ELISA for IL-6 and TNF-α. All ingredients were tested at 1 μM.

TNFα [2] = test: UVB induced TNFα release in NHEKs (ELISA); format: cell-based, Human; conditions: for TNFα (% inh) / EPF Score: 1 μM; for TNFα (% inh) / inhibition at 1 µM: 6 hours pre-treatment, NHEK, UVB 25 mJ/cm2, 24 hours; for EPF Score: Example 8 (8B), TNFα; for inhibition at 1 µM: Homo sapiens, light or radiation study, read-out: TNFα (% inh)
Experimental: as §1, §2, §3, §4, §5, §6

[3] = Radical scavenging capacity (oxidation of ABTS by metmyoglobin); format: biochemical; conditions: for EPF Score: Example 3, scores: 10^−3 M=5, 10^−4 M=15, 10^−5 M=20; for Effective and oxidant conc: lowest effective concentration, OD 750 nm
Description: This assay analyzed the overall antioxidant capacity of test ingredients for the ability to inhibit the oxidation of 2,2′-azino-bis(3-ethylbenzothiazoline-6-sulphonic acid) (ABTS). to ABTS.^+ by metmyoglobin. The testing involved the suppression of optical density (OD) at 750 nm to a degree that is proportional to an effective oxidation inhibition. The EPF scoring system was based on the lowest effective concentration as previously described by MacDaniel et al., 2005 and scores were assigned as follows: 10^−3 M=5; 10^−4 M=15; 10^−5 M=20.

Human LDL = test: LDL pro-oxidative system measuring primary oxidation by-products; format: biochemical; conditions: 100 μM; for Lipid hydrogen-peroxide % protection: CuSO4 oxidative system, 24 hours; for EPF Score: Example 4
Experimental: Human LDL was oxidized with or without 0.1 mM materials under a CuSO4 oxidative system in Ham's F-10 medium.

Rat liver microsomes = test: Microsome pro-oxidative system measuring secondary oxidation by-products (TBARS); format: biochemical; conditions: 100 μM; for Lipid MDA % protection: NADPH/ADP/Fe^3+ oxidative system, 24 hours; for EPF Score: Example 5
Experimental: Rat liver microsomes were oxidized with or without test ingredients at 0.1 mM using a NADPH/ADP/Fe^3+ oxidative system. Secondary oxidation products were quantified after 24 hours incubation by measuring MDA equivalents directly utilizing the production of Thiobarbituric acid-reactive substances (TBARS). Results are expressed as the change in optical density (OD) at 532 nm to a degree that is proportional to an effective oxidation inhibition based on 1,1,3,3-tetraethoxypropane as MDA-TBA production standard.

[4] = system: Primary Human Epidermal Keratinocytes (NHEKs); test: UVB induced DNA damage (thymine dimer formation); format: cell-based; conditions: 1 μM, 6 hours pre-treatment; UVB 200 mJ/cm^2
Experimental: Primary Human Epidermal Keratinocytes (NHEKs) were cultured in the presence of each test ingredient (1 μM) for 6 hours and later removed prior to UVB irradiation (200 mJ/cm^2). Cells were fixed after 1 hour and stained with anti-thymine dimer antibody. Positive rounded stained cells were counted using a fluorescence microscope.

EpiDerm™ inserts = test: UVB induced sun burn cell (SBC) formation using EpiDerm; format: cell-based; conditions: for SBC % inhibition / inhibition at 1000 µM: 1 mM topical, 6 hours, UVB 200 mJ/cm^2, fixed after 24 hours; for EPF Score: Example 7, 1 mM; for inhibition at 1000 µM: light or radiation study
Experimental: EpiDerm™ inserts (MatTek®) were topically treated in the presence of each test ingredient for 6 hours, after which they were removed, inserts were irradiated with 200 mJ/cm^2 UVB, and they fixed for H&E staining after 24 hours. The number of sun burn cells (SBCs) (white arrows) was counted. All compounds were tested at 1 mM.

IL-6 [5] = test: UVA induced IL-6 production in HDFs (ELISA); format: cell-based, Human; conditions: for IL-6 (% inh) / EPF Score: 1 μM; for IL-6 (% inh) / inhibition at 1 µM: 6 hours pre-treatment, HDF, UVA 12.5 J/cm^2, 24 hours; for EPF Score: Example 9 (9A), IL-6; for inhibition at 1 µM: Homo sapiens, light or radiation study, read-out: IL-6 (% inh)
Experimental: as §1, §2, §3, §4
(§7) To test these anti-oxidants for anti-inflammatory and anti-aging properties, primary Human Dermal Fibroblasts (HDFs) were cultured in the presence of each ingredient for 6 hours. […] Media supernatants were collected after 24 hours and analyzed by ELISA for IL-6 and pro-MMP-1. All ingredients were tested at 1 μM.

pro-MMP-1 = test: UVA induced pro-MMP-1 production in HDFs (ELISA); format: cell-based, Human; conditions: for MMP-1 (% inh) / EPF Score: 1 μM; for MMP-1 (% inh) / inhibition at 1 µM: 6 hours pre-treatment, HDF, UVA 12.5 J/cm^2, 24 hours; for EPF Score: Example 9 (9B), MMP-1; for inhibition at 1 µM: Homo sapiens, light or radiation study, read-out: MMP-1 (% inh)
Experimental: as §1, §2, §3, §4, §7

[6] = system: Primary Human Epidermal Keratinocytes (NHEKs); test: UVB induced DNA damage (thymine dimer formation); format: cell-based; conditions: Example 6; 1 μM
[7] = Total Environmental Protection Factor (EPF) score; conditions: 180 point scoring system (20 points for each endpoint measured)
IL-6 [8] = test: UVB induced IL-6 release in NHEKs (ELISA); format: cell-based; conditions: Homo sapiens, light or radiation study; Compound (0.1 μM); NHEK, UVB 25 mJ/cm^2, medium assayed 24 h later; read-out: IL-6 (% inhibited)
TNFα [9] = test: UVB induced TNFα release in NHEKs (ELISA); format: cell-based; conditions: Homo sapiens, light or radiation study; Compound (0.1 μM); NHEK, UVB 25 mJ/cm^2, medium assayed 24 h later; read-out: TNFα (% inhibited)

## tocopherol [Vitamin E]
IL-6 [1]
  IL-6 (% inh): 12%
  EPF Score: 4
TNFα [2]
  TNFα (% inh): 16%
  EPF Score: 4
[3]
  EPF Score: 20
  Effective and oxidant conc: 0.06 mM
Human LDL
  Lipid hydrogen-peroxide % protection: 56%
  EPF Score: 12
Rat liver microsomes
  Lipid MDA % protection: 45%
  EPF Score: 12
[4]
  DNA damage % protection: 9%
EpiDerm™ inserts
  SBC % inhibition: 21%
  EPF Score: 6
IL-6 [5]
  IL-6 (% inh): 82%
  EPF Score: 18
pro-MMP-1
  MMP-1 (% inh): 80%
  EPF Score: 16
[6]
  EPF Score: 3
[7]
  Total EPF score (TTL): 95

## COc1cc(/C=C/C(=O)O)ccc1O [Ferulic acid]
IL-6 [1]
  EPF Score: 16
  inhibition at 1 µM: 54%
TNFα [2]
  EPF Score: 14
  inhibition at 1 µM: 55%
[3]
  EPF Score: 20
  Effective and oxidant conc: 0.03 mM
Human LDL
  Lipid hydrogen-peroxide % protection: 94%
  EPF Score: 20
Rat liver microsomes
  Lipid MDA % protection: 63%
  EPF Score: 17
[4]
  DNA damage % protection: 14%
EpiDerm™ inserts
  EPF Score: 18
  inhibition at 1000 µM: 64%
IL-6 [5]
  EPF Score: 13
  inhibition at 1 µM: 62%
pro-MMP-1
  EPF Score: 7
  inhibition at 1 µM: 37%
[6]
  EPF Score: 5
[7]
  Total EPF score (TTL): 130

## c1coc(CNc2ncnc3[nH]cnc23)c1 [Kinetin]
IL-6 [1]
  EPF Score: 16
TNFα [2]
  EPF Score: 10
Human LDL
  Lipid hydrogen-peroxide % protection: 1%
  EPF Score: 1
Rat liver microsomes
  Lipid MDA % protection: 0%
  EPF Score: 0
[4]
  DNA damage % protection: 14%
EpiDerm™ inserts
  EPF Score: 18
  inhibition at 1000 µM: 62%
IL-6 [5]
  EPF Score: 15
pro-MMP-1
  EPF Score: 2

## COC1=C(OC)C(=O)C(C/C=C(\C)CC/C=C(\C)CC/C=C(\C)CC/C=C(\C)CC/C=C(\C)CC/C=C(\C)CC/C=C(\C)CC/C=C(\C)CC/C=C(\C)CCC=C(C)C)=C(C)C1=O [Ubiquinone]
IL-6 [1]
  EPF Score: 10
  inhibition at 1 µM: 34%
TNFα [2]
  EPF Score: 12
  inhibition at 1 µM: 48%
[3]
  EPF Score: 5
  Effective and oxidant conc: >3 mM
Human LDL
  Lipid hydrogen-peroxide % protection: 14%
  EPF Score: 5
Rat liver microsomes
  Lipid MDA % protection: 62%
  EPF Score: 17
[4]
  DNA damage % protection: 9%
EpiDerm™ inserts
  EPF Score: 13
  inhibition at 1000 µM: 46%
IL-6 [5]
  EPF Score: 17
  inhibition at 1 µM: 79%
pro-MMP-1
  EPF Score: 5
  inhibition at 1 µM: 26%
[6]
  EPF Score: 3
[7]
  Total EPF score (TTL): 87

## O=C(O)CCCC[C@@H]1CCSS1 (racemic) [Lipoic acid]
IL-6 [1]
  IL-6 (% inh): 46%
  EPF Score: 14
TNFα [2]
  TNFα (% inh): 52%
  EPF Score: 14
[3]
  EPF Score: 5
  Effective and oxidant conc: >3 mM
Human LDL
  Lipid hydrogen-peroxide % protection: 5%
  EPF Score: 2
Rat liver microsomes
  Lipid MDA % protection: 25%
  EPF Score: 7
[4]
  DNA damage % protection: 13%
EpiDerm™ inserts
  SBC % inhibition: 27%
  EPF Score: 8
IL-6 [5]
  IL-6 (% inh): 62%
  EPF Score: 13
pro-MMP-1
  MMP-1 (% inh): 80%
  EPF Score: 16
[7]
  Total EPF score (TTL): 94

## O=C1O[C@H]([C@@H](O)CO)C(O)=C1O [Vitamin C, ascorbic acid]
IL-6 [1]
  EPF Score: 4
  inhibition at 1 µM: 13%
TNFα [2]
  EPF Score: 9
  inhibition at 1 µM: 36%
[3]
  EPF Score: 20
  Effective and oxidant conc: 0.03 mM
Human LDL
  Lipid hydrogen-peroxide % protection: 0%
  EPF Score: 1
Rat liver microsomes
  Lipid MDA % protection: 7%
  EPF Score: 2
[4]
  DNA damage % protection: 16%
EpiDerm™ inserts
  EPF Score: 9
  inhibition at 1000 µM: 31%
IL-6 [5]
  EPF Score: 17
  inhibition at 1 µM: 81%
pro-MMP-1
  EPF Score: 3
  inhibition at 1 µM: 13%
[6]
  EPF Score: 6
[7]
  Total EPF score (TTL): 73

## C[N+](C)(C)C(Cc1c[nH]c(=S)[nH]1)C(=O)O (stereo not drawn) [Ergothioneine, 3-(2-sulfanylidene-1,3-dihydroimidazol-4-yl)-2-(trimethylazaniumyl)propanoate]
IL-6 [8]
  inhibition at 0.1 µM: 12%
TNFα [9]
  inhibition at 0.1 µM: 35%

## CC(=O)N[C@@H](CSC/C=C(\C)CC/C=C(\C)CCC=C(C)C)C(=O)O [Arazine ™, N-acetyl-S-farnesyl-L-cysteine]
IL-6 [8]
  inhibition at 0.1 µM: 28%
TNFα [9]
  inhibition at 0.1 µM: 33%

## COC1=C(OC)C(=O)C(CCCCCCCCCCO)=C(C)C1=O [Idebenone]
IL-6 [8]
  inhibition at 0.1 µM: 15%
TNFα [9]
  inhibition at 0.1 µM: 47%
